Like-named read-outs stand apart in the source and are kept apart here.
What was measured:
Assay in all cases: biochemical
Set-up in all cases: DiscoveRx KINOMEscan active site-directed competition binding; percent of control kinase bound to immobilised ligand
YES = biological target: T1, YES (Homo sapiens, UniProt P07947)
T1 construct: gene YES1

CAMK2G = CAMK2G (Homo sapiens, UniProt Q13555)
KIT = KIT (Homo sapiens, UniProt P10721)
HASPIN = biological target: T2, HASPIN (Homo sapiens, UniProt Q8TF76)
T2 sequence (Q8TF76 1-798): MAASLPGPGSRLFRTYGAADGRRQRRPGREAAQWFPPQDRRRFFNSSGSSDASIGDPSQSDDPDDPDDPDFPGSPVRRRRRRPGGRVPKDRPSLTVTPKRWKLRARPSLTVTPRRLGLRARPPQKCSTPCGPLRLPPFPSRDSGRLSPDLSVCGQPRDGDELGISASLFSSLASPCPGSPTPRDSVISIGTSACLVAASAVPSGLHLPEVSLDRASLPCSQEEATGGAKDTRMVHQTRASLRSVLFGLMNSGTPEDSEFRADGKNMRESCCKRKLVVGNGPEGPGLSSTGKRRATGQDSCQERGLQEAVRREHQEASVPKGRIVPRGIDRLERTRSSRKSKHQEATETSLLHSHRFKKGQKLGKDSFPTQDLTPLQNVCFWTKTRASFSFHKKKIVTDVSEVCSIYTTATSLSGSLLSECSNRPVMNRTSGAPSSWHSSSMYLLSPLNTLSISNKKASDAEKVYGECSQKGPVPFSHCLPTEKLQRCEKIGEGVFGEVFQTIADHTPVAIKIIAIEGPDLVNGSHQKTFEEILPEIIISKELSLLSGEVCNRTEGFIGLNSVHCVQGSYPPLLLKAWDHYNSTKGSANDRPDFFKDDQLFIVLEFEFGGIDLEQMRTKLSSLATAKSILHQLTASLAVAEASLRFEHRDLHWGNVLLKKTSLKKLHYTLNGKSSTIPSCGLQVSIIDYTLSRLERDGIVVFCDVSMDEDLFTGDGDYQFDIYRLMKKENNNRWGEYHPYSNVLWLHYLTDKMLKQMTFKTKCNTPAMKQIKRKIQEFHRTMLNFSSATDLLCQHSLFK

LIMK1 = LIMK1 (Homo sapiens, UniProt P53667)
EGFR(T790M) = EGFR(T790M) (Homo sapiens, UniProt P00533, T790M)
MST1 = biological target: T3, MST1 (Homo sapiens, UniProt Q13043)
T3 construct: gene STK4
T3 sequence (Q13043 1-487): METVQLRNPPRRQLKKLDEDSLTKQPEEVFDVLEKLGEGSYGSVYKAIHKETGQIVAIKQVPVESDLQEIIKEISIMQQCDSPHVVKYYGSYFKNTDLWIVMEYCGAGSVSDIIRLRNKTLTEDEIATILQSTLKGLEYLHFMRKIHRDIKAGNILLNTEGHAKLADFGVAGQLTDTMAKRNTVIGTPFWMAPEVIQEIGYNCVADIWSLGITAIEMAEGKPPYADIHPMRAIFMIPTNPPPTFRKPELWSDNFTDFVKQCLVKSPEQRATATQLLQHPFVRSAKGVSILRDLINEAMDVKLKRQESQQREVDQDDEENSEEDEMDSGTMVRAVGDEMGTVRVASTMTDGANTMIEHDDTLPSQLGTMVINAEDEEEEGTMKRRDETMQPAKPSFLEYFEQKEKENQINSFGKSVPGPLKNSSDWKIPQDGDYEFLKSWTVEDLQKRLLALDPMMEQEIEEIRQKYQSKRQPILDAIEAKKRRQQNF

EGFR(G719C) = EGFR(G719C) (Homo sapiens, UniProt P00533, G719C)
MEK3 = biological target: T4, MEK3 (Homo sapiens, UniProt P46734)
T4 construct: gene MAP2K3
T4 sequence (P46734 1-347): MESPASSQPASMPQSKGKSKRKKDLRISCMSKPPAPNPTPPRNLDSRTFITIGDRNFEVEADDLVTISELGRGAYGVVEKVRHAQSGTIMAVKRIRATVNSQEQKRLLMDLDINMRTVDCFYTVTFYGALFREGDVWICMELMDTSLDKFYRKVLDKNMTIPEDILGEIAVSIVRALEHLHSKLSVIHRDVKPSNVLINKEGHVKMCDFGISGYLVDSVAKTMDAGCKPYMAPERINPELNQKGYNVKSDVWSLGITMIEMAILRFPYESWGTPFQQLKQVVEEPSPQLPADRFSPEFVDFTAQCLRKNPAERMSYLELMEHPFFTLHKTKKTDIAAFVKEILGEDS

[1] = read-out: Niraparib (MK-4827) / %Ctrl @ 10000nM
[2] = read-out: Olaparib / %Ctrl @ 10000nM
[3] = read-out: Rucaparib / %Ctrl @ 10000nM, binding competition, % of control
[4] = read-out: Talazoparib (BMN 673) / %Ctrl @ 10000nM

Sequence of EGFR(T790M) (P00533 whole entry T790M): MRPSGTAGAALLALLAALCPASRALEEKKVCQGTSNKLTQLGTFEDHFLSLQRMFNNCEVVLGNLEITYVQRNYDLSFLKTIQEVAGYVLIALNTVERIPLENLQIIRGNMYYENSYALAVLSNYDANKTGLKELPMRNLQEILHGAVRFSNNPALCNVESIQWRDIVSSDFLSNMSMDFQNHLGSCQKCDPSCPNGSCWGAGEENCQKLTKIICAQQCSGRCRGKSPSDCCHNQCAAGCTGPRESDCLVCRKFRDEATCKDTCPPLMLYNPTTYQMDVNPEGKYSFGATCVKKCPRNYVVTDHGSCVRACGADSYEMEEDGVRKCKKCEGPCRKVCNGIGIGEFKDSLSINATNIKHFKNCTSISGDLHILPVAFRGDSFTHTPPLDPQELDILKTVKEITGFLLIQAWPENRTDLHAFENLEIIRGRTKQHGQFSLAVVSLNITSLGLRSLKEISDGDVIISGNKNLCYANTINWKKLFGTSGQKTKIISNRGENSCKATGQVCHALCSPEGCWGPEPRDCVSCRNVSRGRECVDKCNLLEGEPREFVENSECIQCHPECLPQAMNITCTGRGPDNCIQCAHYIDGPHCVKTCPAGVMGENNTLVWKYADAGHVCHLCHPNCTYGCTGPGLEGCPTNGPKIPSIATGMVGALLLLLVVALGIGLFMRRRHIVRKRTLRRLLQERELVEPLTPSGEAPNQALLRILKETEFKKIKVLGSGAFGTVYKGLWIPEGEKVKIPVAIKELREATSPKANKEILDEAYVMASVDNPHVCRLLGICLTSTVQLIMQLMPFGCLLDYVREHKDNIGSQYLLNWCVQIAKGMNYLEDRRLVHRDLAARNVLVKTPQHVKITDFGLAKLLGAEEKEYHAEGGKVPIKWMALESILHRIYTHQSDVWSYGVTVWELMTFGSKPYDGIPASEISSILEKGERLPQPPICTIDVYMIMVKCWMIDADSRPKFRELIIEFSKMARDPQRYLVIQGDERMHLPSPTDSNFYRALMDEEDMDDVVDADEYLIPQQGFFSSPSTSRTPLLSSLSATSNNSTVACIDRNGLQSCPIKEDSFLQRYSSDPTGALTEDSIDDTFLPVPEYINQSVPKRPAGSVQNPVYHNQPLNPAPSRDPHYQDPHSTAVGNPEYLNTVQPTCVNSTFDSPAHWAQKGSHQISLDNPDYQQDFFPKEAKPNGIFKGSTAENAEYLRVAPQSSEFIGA
Sequence of LIMK1 (P53667 whole entry): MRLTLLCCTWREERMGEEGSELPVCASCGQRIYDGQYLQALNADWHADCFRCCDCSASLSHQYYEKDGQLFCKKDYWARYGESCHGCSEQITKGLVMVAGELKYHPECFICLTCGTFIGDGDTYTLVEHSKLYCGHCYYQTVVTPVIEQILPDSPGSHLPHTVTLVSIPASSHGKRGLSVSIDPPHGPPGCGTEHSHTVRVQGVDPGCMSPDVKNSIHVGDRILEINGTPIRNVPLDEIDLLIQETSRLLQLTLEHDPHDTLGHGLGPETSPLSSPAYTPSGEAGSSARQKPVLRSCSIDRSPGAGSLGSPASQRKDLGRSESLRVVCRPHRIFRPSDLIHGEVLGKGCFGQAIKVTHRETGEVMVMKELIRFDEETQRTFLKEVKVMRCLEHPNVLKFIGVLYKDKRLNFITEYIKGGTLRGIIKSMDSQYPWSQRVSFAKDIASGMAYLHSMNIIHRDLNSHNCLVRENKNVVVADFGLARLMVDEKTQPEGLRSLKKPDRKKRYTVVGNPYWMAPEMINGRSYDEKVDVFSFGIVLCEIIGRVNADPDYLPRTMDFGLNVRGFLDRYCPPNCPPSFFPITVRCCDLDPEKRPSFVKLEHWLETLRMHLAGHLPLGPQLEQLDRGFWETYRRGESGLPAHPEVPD
T1 sequence (P07947 whole entry): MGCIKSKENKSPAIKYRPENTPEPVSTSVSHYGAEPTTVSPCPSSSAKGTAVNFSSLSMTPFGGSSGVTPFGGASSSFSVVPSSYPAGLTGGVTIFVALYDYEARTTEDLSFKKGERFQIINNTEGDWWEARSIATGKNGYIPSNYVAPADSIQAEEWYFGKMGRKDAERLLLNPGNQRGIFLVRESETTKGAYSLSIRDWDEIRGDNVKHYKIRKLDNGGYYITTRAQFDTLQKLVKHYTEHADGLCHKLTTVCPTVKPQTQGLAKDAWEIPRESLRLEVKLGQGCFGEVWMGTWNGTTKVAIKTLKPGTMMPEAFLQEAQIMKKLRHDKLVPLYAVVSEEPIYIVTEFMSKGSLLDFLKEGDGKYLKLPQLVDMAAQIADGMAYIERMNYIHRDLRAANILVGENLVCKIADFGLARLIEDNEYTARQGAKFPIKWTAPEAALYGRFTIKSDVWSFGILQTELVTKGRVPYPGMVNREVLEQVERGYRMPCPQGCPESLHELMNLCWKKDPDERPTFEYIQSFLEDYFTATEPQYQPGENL
Sequence of CAMK2G (Q13555 whole entry): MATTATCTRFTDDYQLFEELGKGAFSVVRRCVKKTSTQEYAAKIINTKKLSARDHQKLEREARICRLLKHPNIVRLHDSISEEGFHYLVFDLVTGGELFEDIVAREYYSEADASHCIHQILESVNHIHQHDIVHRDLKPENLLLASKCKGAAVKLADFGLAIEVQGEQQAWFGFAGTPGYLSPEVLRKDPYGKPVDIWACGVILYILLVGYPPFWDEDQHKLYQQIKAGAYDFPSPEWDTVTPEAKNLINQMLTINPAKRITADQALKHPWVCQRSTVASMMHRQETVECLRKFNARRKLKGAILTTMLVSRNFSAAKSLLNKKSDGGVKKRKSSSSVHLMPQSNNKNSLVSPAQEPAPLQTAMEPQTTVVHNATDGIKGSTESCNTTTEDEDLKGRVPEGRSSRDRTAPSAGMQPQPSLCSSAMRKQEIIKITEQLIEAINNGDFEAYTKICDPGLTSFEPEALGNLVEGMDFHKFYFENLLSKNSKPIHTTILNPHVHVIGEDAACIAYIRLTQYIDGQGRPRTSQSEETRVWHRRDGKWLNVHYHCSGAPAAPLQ
Sequence of EGFR(G719C) (P00533 whole entry G719C): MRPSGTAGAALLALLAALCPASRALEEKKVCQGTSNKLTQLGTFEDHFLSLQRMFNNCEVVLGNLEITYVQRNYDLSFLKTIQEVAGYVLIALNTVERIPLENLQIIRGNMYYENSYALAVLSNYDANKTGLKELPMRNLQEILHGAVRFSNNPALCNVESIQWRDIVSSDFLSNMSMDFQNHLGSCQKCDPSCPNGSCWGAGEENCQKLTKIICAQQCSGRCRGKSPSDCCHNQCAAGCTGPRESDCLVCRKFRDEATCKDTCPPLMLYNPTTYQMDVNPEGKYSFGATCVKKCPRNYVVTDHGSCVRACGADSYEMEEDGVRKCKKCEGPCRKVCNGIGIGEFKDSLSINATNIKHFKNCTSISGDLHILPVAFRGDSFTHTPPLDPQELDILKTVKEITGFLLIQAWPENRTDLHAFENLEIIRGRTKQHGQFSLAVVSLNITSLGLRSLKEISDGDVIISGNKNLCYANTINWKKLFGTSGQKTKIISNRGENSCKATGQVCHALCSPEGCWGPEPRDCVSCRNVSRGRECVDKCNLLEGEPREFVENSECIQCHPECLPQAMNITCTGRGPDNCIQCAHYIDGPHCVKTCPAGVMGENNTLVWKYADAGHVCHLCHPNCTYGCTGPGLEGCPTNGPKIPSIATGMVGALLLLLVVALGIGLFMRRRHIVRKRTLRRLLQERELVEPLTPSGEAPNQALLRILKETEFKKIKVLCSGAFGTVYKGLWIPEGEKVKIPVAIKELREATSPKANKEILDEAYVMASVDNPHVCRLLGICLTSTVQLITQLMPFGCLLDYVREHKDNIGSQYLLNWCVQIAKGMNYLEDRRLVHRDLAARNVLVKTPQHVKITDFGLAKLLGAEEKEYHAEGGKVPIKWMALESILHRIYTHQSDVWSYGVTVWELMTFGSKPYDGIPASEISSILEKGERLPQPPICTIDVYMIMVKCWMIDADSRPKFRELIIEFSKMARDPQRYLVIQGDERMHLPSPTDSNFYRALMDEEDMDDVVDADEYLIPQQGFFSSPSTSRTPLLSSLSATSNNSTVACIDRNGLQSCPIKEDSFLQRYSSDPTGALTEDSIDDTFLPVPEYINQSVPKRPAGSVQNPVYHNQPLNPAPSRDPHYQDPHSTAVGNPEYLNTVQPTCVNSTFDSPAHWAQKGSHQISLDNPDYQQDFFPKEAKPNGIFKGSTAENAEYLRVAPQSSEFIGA

With NC(=O)c1cccc2cn(-c3ccc([C@@H]4CCCNC4)cc3)nc12 [Niraparib] the percent of control binding at 10 µM (YES; [1]) was 83%, the percent of control binding at 10 µM (CAMK2G; [1]) was 95% and the percent of control binding at 10 µM (KIT; [1]) was 87%. For the same compound, the percent of control binding at 10 µM (HASPIN; [1]) was 2.2%, the percent of control binding at 10 µM (LIMK1; [1]) was 82% and the percent of control binding at 10 µM (EGFR(T790M); [1]) was 93%. The percent of control binding at 10 µM (MST1; [1]) was 87%, the percent of control binding at 10 µM (EGFR(G719C); [1]) was 86% and the percent of control binding at 10 µM (MEK3; [1]) was 80%.
Compound O=C(c1cc(Cc2n[nH]c(=O)c3ccccc23)ccc1F)N1CCN(C(=O)C2CC2)CC1 [Olaparib] has a percent of control binding at 10 µM (YES; [2]) of 93%, a percent of control binding at 10 µM (CAMK2G; [2]) of 100% and a percent of control binding at 10 µM (KIT; [2]) of 99%. The percent of control binding at 10 µM (HASPIN; [2]) was 72%, the percent of control binding at 10 µM (LIMK1; [2]) was 100% and the percent of control binding at 10 µM (EGFR(T790M); [2]) was 84%. The percent of control binding at 10 µM (MST1; [2]) was 97%, the percent of control binding at 10 µM (EGFR(G719C); [2]) was 98% and the percent of control binding at 10 µM (MEK3; [2]) was 85%.
In the case of CNCc1ccc(-c2[nH]c3cc(F)cc4c3c2CCNC4=O)cc1 [Rucaparib], the percent of control binding at 10 µM (YES; [3]) is reported as 99%, the percent of control binding at 10 µM (CAMK2G; [3]) is reported as 83% and the percent of control binding at 10 µM (KIT; [3]) is reported as 100%. The percent of control binding at 10 µM (HASPIN; [3]) was 9%, the percent of control binding at 10 µM (LIMK1; [3]) was 100% and the percent of control binding at 10 µM (EGFR(T790M); [3]) was 75%. It also gave a percent of control binding at 10 µM (MST1; [3]) of 85%, a percent of control binding at 10 µM (EGFR(G719C); [3]) of 82% and a percent of control binding at 10 µM (MEK3; [3]) of 83%.
With Cn1ncnc1[C@H]1c2n[nH]c(=O)c3cc(F)cc(c23)N[C@@H]1c1ccc(F)cc1 [Talazoparib] the percent of control binding at 10 µM (YES; [4]) was 92%, the percent of control binding at 10 µM (CAMK2G; [4]) was 95% and the percent of control binding at 10 µM (KIT; [4]) was 100%. The percent of control binding at 10 µM (HASPIN; [4]) was 100%, the percent of control binding at 10 µM (LIMK1; [4]) was 99% and the percent of control binding at 10 µM (EGFR(T790M); [4]) was 65%. The percent of control binding at 10 µM (MST1; [4]) was 100%, the percent of control binding at 10 µM (EGFR(G719C); [4]) was 99% and the percent of control binding at 10 µM (MEK3; [4]) was 65%.
